# Source: paper PMC11808659 (RSC Advances, 2025)
# System: ABL1 tyrosine kinase
# Experiment: ABL1 tyrosine kinase inhibition in K562 cells
# Type: cell-based, human
# Conditions: at a concentration of 30 μM
row,SMILES,inhibition of ABL1 production [%]
1,"Nc1nc(-c2ccc(Br)cc2)cc(-c2ccccc2O)n1 [1e, 2-(2-Amino-6-(4-bromophenyl)pyrimidin-4-yl)phenol]",80

# System: K562 human leukemia cell line
# Experiment: MTT anti-proliferative activity on K562 cell line
# Type: cell-based
# Conditions: structure-activity discussion
row,SMILES,anti-tumor activity against K562 cell line (in words)
1,"COc1ccc(-c2cc(-c3cccc(OC)c3)nc(N)n2)cc1 [1i, 4-(4-Methoxy-phenyl)-6-(3-methoxy-phenyl)-pyrimidin-2-ylamine]",completely lost their anti-tumor activity
2,"COc1ccc(-c2cc(-c3ccccc3O)nc(N)n2)cc1 [1d, 2-(2-Amino-6-(4-methoxyphenyl)pyrimidin-4-yl)phenol]",completely lost their anti-tumor activity
3,"COc1cccc(-c2cc(-c3ccc(Cl)cc3)nc(N)n2)c1 [1k, 4-(4-Chloro-phenyl)-6-(3-methoxy-phenyl)-pyrimidin-2-ylamine]",significantly decreased the inhibitory activity
4,"COc1ccc(-c2cc(-c3ccc(Cl)cc3)nc(N)n2)cc1 [1p, 4-(4-Chlorophenyl)-6-(4-methoxyphenyl)pyrimidin-2-amine]",significantly decreased the inhibitory activity
5,"Nc1nc(-c2ccc(Cl)cc2)cc(-c2ccccc2O)n1 [1f, 2-(2-Amino-6-(4-chlorophenyl)pyrimidin-4-yl)phenol]",significantly decreased the inhibitory activity
6,"COc1ccc(-c2cc(-c3ccc(OC)cc3)nc(N)n2)cc1 [1n, 4,6-Bis(4-methoxyphenyl)pyrimidin-2-amine]",completely lost their anti-tumor activity
